# Laboratory results: patent US20100087649A1, “QUINOLINONE DERIVATIVES” (priority 2006, published 2010)
# How the values were obtained:
# [1] = system: wild-type HIV-IIIB strain; assay: Antiviral analysis EGFP: anti-HIV activity in MT4 LTR-EGFP cells; assay type: cell-based, HIV-1; conditions: Human immunodeficiency virus 1, 72 h, fluorescence of HIV-infected cells reduced by 50%, three days after infection
# Procedure, shortened: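 MT4 T-cells carrying an HIV-1 LTR-driven EGFP reporter were infected with HIV-IIIB; fluorescence was measured by scanning microscope image analysis three days post-infection. EC50 (μM) is the concentration cutting infected-cell fluorescence by 50%; CC50 is the same on mock-infected cells.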
# [2] = Cytotoxicity in mock-infected MT4 CMV-EGFP cells; assay type: cell-based, human; conditions: human, fluorescence reduced by 50%
Compound,EC50 [1] [µM],CC50 at 3 days [2] [µM]
Cc1ccc(-n2c(=O)c(C#N)cc3ccc(-c4cc[nH]c4)cc32)cc1C#N [compound 150],0.56,> 100
Cc1ccc2c(N(C)C)c(C#N)c(=O)n(-c3ccc([N+](=O)[O-])cc3)c2n1 [compound 127],22.4,> 32
N#Cc1c(N)c2ccc(Br)cc2n(-c2ccc([N+](=O)[O-])cc2)c1=O [compound 118],0.72,> 32
N#Cc1cc2ccc(-n3cnnc3)cc2n(-c2ccc([N+](=O)[O-])cc2)c1=O [compound 26],80.9,> 100
COc1ccc2cc(C#N)c(=O)n(-c3ccc(C)c(C#N)c3)c2c1 [compound 146],4.67,> 100
N#Cc1c(N)c2ccc(-c3cccs3)cc2n(-c2ccc([N+](=O)[O-])cc2)c1=O [compound 119],0.52,> 100
N#Cc1c(N)c2ccccc2n(-c2ccc([N+](=O)[O-])cc2)c1=O [compound 101],> 32,> 32
N#Cc1cc2ccc(N)cc2n(-c2ccc([N+](=O)[O-])cc2)c1=O [compound 24],1.48,> 32
N#Cc1c(N)c2ccc(Cl)cc2n(-c2ccc(Cl)nc2)c1=O [compound 103],3.61,85.2
COc1ccc2c(c1)cc(C#N)c(=O)n2-c1ccc([N+](=O)[O-])cc1 [compound 83],> 32,> 32
Cc1ccc(-n2c(=O)c(C#N)cc3ccc(-c4cccc(CNC(=O)CN(C)C)c4)cc32)cc1C#N [compound 158],0.21,11.5
Cc1ccc(-n2c(=O)c(C#N)c(NCCN)c3ccccc32)cc1C#N [compound 164],0.63,12.9
Cn1c(=O)oc2cc(-n3c(=O)c(C#N)cc4ccccc43)ccc21 [compound 8],12.5,> 100
COc1ccc2cc(C#N)c(=O)n(-c3ccc([N+](=O)[O-])cc3)c2c1 [compound 9],2.48,> 32
N#Cc1c(NCCN2CCCC2)c2ccccc2n(-c2ccc([N+](=O)[O-])cc2)c1=O [compound 130],3.71,> 100
Cc1ccc(-n2c(=O)c(C#N)cc3ccc(OCCCN(C)C)cc32)cc1C#N [compound 147],0.85,83.9
N#Cc1cc2cc(O)c(O)cc2n(-c2ccc([N+](=O)[O-])cc2)c1=O [compound 94],> 32,> 32
Cc1c(C#N)c(=O)n(-c2ccc([N+](=O)[O-])cc2)c2ccccc12 [compound 7],9.34,> 100
Cc1ccc(-n2c(=O)c(C#N)c(N)c3ccc(-c4ccccn4)cc32)cc1C#N [compound 123],> 100,> 100
N#Cc1cc2ccc(OP(=O)(O)O)cc2n(-c2ccc([N+](=O)[O-])cc2)c1=O [compound 70],17.5,> 32
